{"source": "patent US6262036A", "about": "“Method for inhibiting RNA translation using chimeric oligonucleoside compounds” (priority 2000, dated 2001)", "key": {"[1]": {"test_system": "complementary RNA targets", "assay": "Tm of Rp-enriched versus racemic methylphosphonate oligomers with RNA (Example 33)", "type": "binding", "details": "for Tm: 2.4 μM total strand concentration, pH 7.2, 100 mM sodium chloride"}, "[2]": {"test_system": "complementary synthetic RNA target", "assay": "Binding affinities of chimeric backbone oligomers to RNA (Example 35)", "design": "KA (37° C.): unit not given here", "details": "for Tm: 1:1 molar ratio, 2.4 micromolar total strand, pH 7.2, 100 mM NaCl; for KA (37° C.): two-state model fit", "protocol": "The following oligonucleotides were tested for their ability to hybridize to a complementary synthetic RNA target.\nThe bases shown in parentheses contain the backbone modification indicated in the middle set of brackets for each description, and likewise the terminal portions of the oligomers contain linkage structures as shown in the terminal sets of brackets. The PS/DE notation indicates an alternating array of bases beginning with a phosphorothioate linkage. For example, if there are five bases in a sequence denoted as PS/DE, they include three phosphorothioate (PS) bonds and two phosphodiester (DE) bonds.\nEach oligomer was mixed with its complementary synthetic RNA target in a 1:1 molar ratio in a buffer system consisting of 20 mM sodium phosphate buffer (pH 7.2), 100 mM NaCl, 0.03% potassium sarkosylate and 0.1 mM EDTA; total strand concentration=2.4 micromolar. The resulting solutions were heated to 70° C. and slowly cooled to 4° C. over a time period of approximately 4-6 hours. […] The binding constants at 37° C."}, "[3]": {"assay": "Stability to nuclease digestion in 10% fetal calf serum (Example 38)", "type": "in vitro ADME", "details": "pH 8.0, 37° C., 50% full length oligomer digested, first three time points", "protocol": "Multiple samples of each chimeric oligomer were prepared in 1.5 mL polypropylene microcentrifuge tubes on ice. Each sample contained oligomer (0.1 OD260 unit), 10% fetal calf serum (FCS, Gemini Bioproducts, Calabasas, Calif.), 20 mM HEPES (pH 8.0), 0.2% paramethylsulfonyl fluoride (PMSF), 175 mM KCl, 0.1 mM dithiothreitol, 0.1 mM EDTA, 2 mM MgCl2 and 4% glycerol--total volume=100 μL. The samples were incubated at 37° C. for specified time periods and then diluted with 0.4% NP-40/acetonitrile (35 μL), quickly frozen on dry ice and stored at -20° C. Samples were then individually thawed, diluted with water (635 μL) and analyzed immediately by reversed-phase HPLC according to the method given in the preceding example (except that a 2 mL sample loop was used to load the samples onto the column). Results are shown in tabular format below, and in graphical format in FIG. 2."}, "S1-endonuclease": {"test_system": "S1-endonuclease", "assay": "Stability to nuclease digestion by S1-endonuclease (Example 37)", "type": "in vitro ADME", "details": "S1-endonuclease 0.5 units/mL, pH 5.0, 37° C.; 50% full length oligomer digested", "protocol": "The following oligomers were tested for nuclease stability in the presence of S1-endonuclease.\nS1-endonuclease was purchased from Promega Corp. (Catalog #E576B, Madison, Wis.). Aliquots of each chimeric oligomer (0.05-0.075 OD260 units) were individually added to polypropylene microcentrifuge tubes containing S1-endonuclease (0.5 units/mL) in 30 mM sodium acetate (pH 5.0), 50 mM NaCl, 1.0 mM zinc acetate and 5% glycerol; total reaction volume=10 μL. These tubes were incubated at 37° C. for specified time periods, quickly frozen in dry ice and then stored in a freezer at -20° C. […] Column=Vydac Protein C4 (catalog #214TP54, 4.9 mm i.d.×250 mm long). Buffer A=50 mM triethylammonium acetate (pH 7)/1% acetonitrile; Buffer B=50 mM triethylammonium acetate (pH 7)/50% acetonitrile. […] The samples were diluted with water (50 μL) and injected onto the column using a 100 μL sample loop. Peaks corresponding to full length oligomer and its degradation products were detected by monitoring at 260 nm. The amount of degradation occurring in each reaction was determined by measuring the reduction in peak area for the full-length oligomer (identified by comparison to an external control and/or by coinjecting undigested oligomer as an internal control). The data is shown in tabular format below, and in graphic format in FIG. 1."}, "[4]": {"test_system": "endogenous eukaryotic RNaseH derived from HeLa cell nuclear extracts", "type": "biochemical", "details": "10 μM oligomer, 1 μM RNA target"}, "pG1035 (SplicerCAT)": {"test_system": "pG1035 (SplicerCAT)", "assay": "Inhibition of CAT expression, splicing target pG1035 (SplicerCAT), in COS-7 cells", "type": "cell-based, African Green Monkey", "details": "1.0 μM oligomer; ± std error; normalized to protein and luciferase; chimeric oligomers also normalized to pG1036", "protocol": "COS-7 cells were transiently transfected with plasmids encoding either a target reporter gene or a control non-target reporter gene. These cells were then treated with various chimeric antisense or control oligomers and then assayed for the expression of the reporter genes.\npG1035: Splicer CAT, inserted into a pRc/CMV vector\nCOS 7 cells were plated at 1.5×10^5 cells/well in a 12 well plate format on the day before transfections began. All cultures were maintained at 37° C. On the next day, the transfection mixes were prepared. For each well of a 12 well plate, 1.0 μM oligomer was combined with 1 μg pGL2 or pSVβ+1 μg of the target CAT plasmid in 0.5 ml of Optimem (Gibco/BRL) and 18.75 μg Transfectam (for chimeric oligomers, Promega) or Lipofectamine (for all PS oligomers, Promega) also in 0.5 ml of Optimem. These quantities gave a 6.9 or 4.5 or 2.0 to 1 cationic lipid to oligomer plus DNA ratio, respectively, in one milliliter total. pGL2 and pSVβ served as transfection and oligomer specificity controls. […]\nThe cell lysates were then assayed for CAT, and luciferase or […] activity, and the total protein concentration was determined as described below. […]\n[…] of reaction mixture was then added to each tube, which was then incubated for, typically, approximately 1 hour in a 37° C. oven. […] The sample was then counted in a Packard scintillation counter.\nThis assay was performed generally as follows according to standard procedures. 20 μof lysate was combined with 100 μl of luciferase assay reagent (Promega) and counted in a scintillation counter (Packard) within 20 seconds (as recommended by Promega). […]\nSix μl of lysate per well was added, followed by 300 μl Coomassie Protein Assay Reagent (Pierce) per well. The individual sample plates were then read at A570 on a microplate reader (Molecular Devices). […]\nOligomers were transfected into COS-7 cells and lysates were made and assayed as described previously. […] N.D.=not determined. […]"}}, "note": "[mp] = methylphosphonate linkage"}
{"substance": "1634-1: 5'-TAG-CTT-CCT-TAG-CTC-CTG-3', racemic methylphosphonate (TAGCTTCCTTAGCTCCTG; all [mp], sugars by position and methylation of C not given here) [Oligomer 1634-1]", "values": [{"measurement": "Tm", "setting": "[1]", "result": 38.2, "unit": "°C"}]}
{"substance": "2253-1: 5'-AGA-GAG-AGA-GAG-AG-T-3', racemic methylphosphonate (AGAGAGAGAGAGAGT; all [mp], sugars by position not given here) [Oligomer 2253-1]", "values": [{"measurement": "Tm", "setting": "[1]", "result": 48.9, "unit": "°C"}]}
{"substance": "2517-1: 5'-GTG-TGT-GTG-TGT-GTG-TA-3'-3', racemic methylphosphonate (GTGTGTGTGTGTGTGTA; all [mp], sugars by position not given here; further chemistry not fully specified) [Oligomer 2517-1]", "values": [{"measurement": "Tm", "setting": "[1]", "result": 41.0, "unit": "°C"}]}
{"substance": "2571-1: 5'-(G*T)(C*T)(T*C)(C*A)(T*G)(C*A)(T*G)(T*T)(G*T)-C-3', 75% MP(Rp) [Oligomer 2571-1]", "values": [{"measurement": "Tm", "setting": "[1]", "result": 46.3, "unit": "°C"}, {"measurement": "ΔTm", "setting": "[1]; Rp-enriched versus racemic oligomer of the pair", "result": 8.2, "unit": "°C"}]}
{"substance": "2624-1: 3'-CTGTTG TACGT ACCTTCTG-5' Racemic MP (CTGTTGTACGTACCTTCTG; racemic methylphosphonate, chemistry not fully specified; listed 3' to 5') [Oligomer 2624-1]", "values": [{"measurement": "Tm", "setting": "[1]", "result": 38.6, "unit": "°C"}]}
{"substance": "2681-1: 5'-GTCTTCCA(TGCAT)GTTGTCC-3' [MP][PS/DE][MP] [Oligomer 2681-1]", "values": [{"measurement": "Tm", "setting": "[2]", "result": 44.1, "unit": "°C"}, {"measurement": "KA (37° C.)", "setting": "[2]", "result": "2.1 × 10^7"}, {"measurement": "Half-Life for Degradation", "setting": "[3]", "result": 8.1, "unit": "h"}, {"measurement": "Half-Life for Degradation", "setting": "S1-endonuclease", "result": 12.2, "unit": "h"}]}
{"substance": "2687-1: 5'-GTCTTCCA(TGCAT)GTTGTCC-3' [75% MP(Rp)][DE][75% MP(Rp)] [Oligomer 2687-1]", "values": [{"measurement": "Tm", "setting": "[2]", "result": 52.8, "unit": "°C"}, {"measurement": "KA (37° C.)", "setting": "[2]", "result": "2.6 × 10^9"}]}
{"substance": "2688-1: 5'-ATG-GTG-TCT-GTT-TGA-GGT-T-3', racemic methylphosphonate (ATGGTGTCTGTTTGAGGTT; all [mp], sugars by position and methylation of C not given here) [Oligomer 2688-1]", "values": [{"measurement": "Tm", "setting": "[1]", "result": 40.0, "unit": "°C"}]}
{"substance": "3214-1: 5'-GTCTTCCA(TGCAT)GTTGTCC-3' [MP(Rp)/DE][PS/DE][MP(Rp)/DE] [Oligomer 3214-1]", "values": [{"measurement": "Tm", "setting": "[2]", "result": 61.0, "unit": "°C"}, {"measurement": "KA (37° C.)", "setting": "[2]", "result": "2.3 × 10^14"}, {"measurement": "Half-Life for Degradation", "setting": "[3]", "result": 4.3, "unit": "h"}, {"measurement": "Half-Life for Degradation", "setting": "S1-endonuclease", "result": 5.0, "unit": "h"}, {"measurement": "RNaseH Cleavage after 2 Hrs. at 37° C.", "setting": "[4]", "result": 38.0, "unit": "%"}]}
{"substance": "3256-1: 5'-GTCTTCCA(TGCAT)GTTGTCC-3' [MP(Rp)/DE][PS][MP(Rp)/DE] [Oligomer 3256-1]", "values": [{"measurement": "Tm", "setting": "[2]", "result": 60.1, "unit": "°C"}, {"measurement": "KA (37° C.)", "setting": "[2]", "result": "5.5 × 10^13"}, {"measurement": "Half-Life for Degradation", "setting": "[3]", "result": 16.2, "unit": "h"}, {"measurement": "Half-Life for Degradation", "setting": "S1-endonuclease", "result": 12.5, "unit": "h"}, {"measurement": "RNaseH Cleavage after 2 Hrs. at 37° C.", "setting": "[4]", "result": 18.7, "unit": "%"}]}
{"substance": "3257-1: 5'-GTCTTC(CATGCAT)GTTGTCC-3' [MP(Rp)/DE][PS/DE][MP(Rp)/DE] [Oligomer 3257-1]", "values": [{"measurement": "Tm", "setting": "[2]", "result": 60.9, "unit": "°C"}, {"measurement": "KA (37° C.)", "setting": "[2]", "result": "2.1 × 10^14"}]}
{"substance": "XV-7: 24mer, all phosphorothioate: 5' ccc tga gag aga gag aga ggt tcg 3' (CCCTGAGAGAGAGAGAGAGGTTCG; all phosphorothioate, sugars by position and methylation of C not given here)", "values": [{"measurement": "percent inhibition of CAT expression, pG1035 = splicing", "setting": "pG1035 (SplicerCAT)", "result": "17 ± 6", "unit": "%"}]}
